pIC50: −log10 of the molar value. Where two headings read alike, the source gives them in different places.
Tests used:
[1] = test system: femur (periosteal bone induction); test: Rat periosteal injection model; type: in vivo; conditions: daily local injection five times per week for two weeks; Day 15; male Sprague-Dawley rats
Protocol: Rats were anesthetized with isoflurane (2-3 min) in a conduction chamber located in a fume hood. The right hindlimb of each rat was shaved and cleaned. A 25 gauge needle attached to a syringe was pre-filled with a formulation of the test compound for local injection. The formulation was injected onto the subperiosteum of femur in a volume of 5-15 μL for 14 days. The rats were sacrificed after dosing, the femurs were collected, and then analyzed by radiography and dual-energy X-ray absorptiometry (DEXA).
The right femur of three-week old male Sprague-Dawley rats received a daily injection of vehicle or test compound five times per week for two weeks. On Day 15, all rats were sacrificed and the right femurs were collected for analysis. Periosteal bone induction was assessed using radiography and DEXA. […] The bone mineral content (BMC) of the injected region of the femur (area between lesser trochanter and mid-shaft of the femur) was assessed by DEXA comparing rats treated with test compound with those treated only with vehicle. In this model, N^4-(3,5-dimethoxy-benzyl)-N^2-(2-pyridin-4-yl-ethyl)-pyrido[2,3-d]pyrimidine-2,4-diamine, 2-(3-{3-[4-(3,4-dimethoxy-benzylamino)-pyrido[2,3-d]pyrimidin-2-ylamino]-propyl}-phenyl)-propan-2-ol, and N^4-(3,4-dimethoxy-benzyl)-N^2-(3-phenyl-propyl)-pyrido[2,3-d]pyrimidine-2,4-diamine increased BMC by 34%, 49%, and 33% respectively. Additionally, 9-(1-acetyl-4-phenyl-butyl)-2-(3,4-dimethoxy-benzyl)-1,9-dihydropurin-6-one increased BMC by 20% in the aforementioned model.

[2] = target: T1, PDE 2 enzyme isolated from human platelets (Homo sapiens, UniProt O00408); test: PDE 2 enzyme scintillation proximity assay (SPA); type: biochemical
T1 construct: PDE 2 enzyme was isolated from human platelets; from tissue; host or cells: human platelets (pooled blood from multiple donors); HiTrap Q anion-exchange fraction eluting at about 325 mM NaCl
T1 sequence (O00408 whole entry): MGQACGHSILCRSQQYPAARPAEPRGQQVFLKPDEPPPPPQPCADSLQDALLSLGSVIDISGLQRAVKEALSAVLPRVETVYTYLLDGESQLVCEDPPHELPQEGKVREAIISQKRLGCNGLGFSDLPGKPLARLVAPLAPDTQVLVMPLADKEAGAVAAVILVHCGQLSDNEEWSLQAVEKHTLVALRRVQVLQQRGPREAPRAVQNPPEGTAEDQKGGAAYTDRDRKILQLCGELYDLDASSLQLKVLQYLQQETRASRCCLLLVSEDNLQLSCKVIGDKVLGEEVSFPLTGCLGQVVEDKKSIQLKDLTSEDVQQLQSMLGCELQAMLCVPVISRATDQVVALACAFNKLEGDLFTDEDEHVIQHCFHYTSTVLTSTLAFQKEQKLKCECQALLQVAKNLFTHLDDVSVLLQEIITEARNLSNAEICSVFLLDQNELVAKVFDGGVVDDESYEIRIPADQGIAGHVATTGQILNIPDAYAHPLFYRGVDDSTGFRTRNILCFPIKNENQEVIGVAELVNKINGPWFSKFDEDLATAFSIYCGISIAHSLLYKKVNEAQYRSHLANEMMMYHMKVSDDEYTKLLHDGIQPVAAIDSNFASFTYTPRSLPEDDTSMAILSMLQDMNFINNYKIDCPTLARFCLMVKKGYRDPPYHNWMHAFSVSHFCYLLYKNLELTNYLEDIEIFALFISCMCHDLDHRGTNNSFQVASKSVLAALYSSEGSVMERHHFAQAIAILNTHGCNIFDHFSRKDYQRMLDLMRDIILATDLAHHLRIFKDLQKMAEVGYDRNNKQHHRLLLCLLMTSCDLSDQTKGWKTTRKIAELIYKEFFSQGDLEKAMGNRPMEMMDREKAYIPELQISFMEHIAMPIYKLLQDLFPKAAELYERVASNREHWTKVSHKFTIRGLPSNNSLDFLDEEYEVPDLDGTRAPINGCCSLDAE
Protocol: PDE 2 enzyme was isolated from human platelets with approximately 1.4 L of blood from multiple donors used to make the platelet pellets. Platelets were resuspended in approximately 75 mL of lysis buffer [20 mM Tris pH 7.2, 5 mM MgCl2, 250 mM Sucrose, 1 mM DTT, 1 μL/2 mL Sigma Protease inhibitor #8340; Sigma-Aldrich; St. Louis, Mo.] and lysed by sonication at 4° C., with 3 rounds of 1 min bursts then spun at 4° C. overnight at 100,000×g. Cleared lysates were loaded to AKTA Explorer FPLC (Amersham Biosciences; Piscataway, N.J.) in a series of three chromatographic separations, with an average load volume of 25 mL. A 5 mL HiTrap Q anion exchange column (Amersham Biosciences) was used. […] Two major cGMP activity fractions (PDE 5 and PDE 2) were isolated and pooled separately. The PDE 2-pooled fraction total was approximately 40 mL which was dispensed in cryovials of 200 μl/vial and placed in storage at −80° C.
The inhibitory activity of the compounds of formula (I) on recombinant or isolated PDE 2, and other PDE's, was determined using the […] scintillation proximity assay (SPA) kits from Amersham International (Little Chalfont, England). The SPA assays were performed using 96 well plates. The PDE SPA yttrium silicate beads (Amersham Biosciences) bind preferentially to the linear nucleotide, GMP, compared to the cyclic nucleotide, cGMP. ^3H-cGMP was added to the reaction and when the product, ^3H-GMP, was in […] to the beads, the scintillant within the bead was excited, which was detected using a Packard scintillation counter (Perkin-Elmer Life Sciences; Boston, Mass.). The enzyme concentration used was in the linear range and the Km of the enzyme was determined (15 uM). The final substrate concentration was <1/3 of Km (1 μM) so that IC50 values would approximate the Ki values. The assay was validated using literature compounds as controls before testing compounds. Then, PDE catalytic activity measurements obtained in the presence of the test compound, and those obtained in the absence of the test compound, were compared and the lC50 value is determined. […]

[3] = test system: fractured right femurs; test: Rat transverse femoral fracture model; type: in vivo; conditions: single 5 mg dose injected percutaneously into fracture site; three weeks after injection; male rats
Protocol: Male Sprague-Dawley rats at 3 to 4 months of age were used. The animals were anesthetized with ketamine and xylazine at doses of 100 and 10 mg/kg, respectively. The right hindlimb of each rat was shaved and cleaned. A 1 cm incision was made just lateral to the patella and the femoral condyle was exposed. A Kirschner wire (0.045″ in diameter) was introduced into the intramedullary canal through the intercondylar portion to serve as an internal stabilization. The muscle incision was closed with vicryl and the skin incision was closed with stainless steel wound clips. The mid-diaphysis of the pinned femur was fractured by means of a three-point bending device driven by a dropped weight. The rats were permitted full weight-bearing and unrestricted activity after awakening from anesthesia. The test compounds were administered on various days after surgery by percutaneous injection onto the fracture site. The animals were sacrificed after treatment and the femurs were collected for analysis. Fracture healing was evaluated by using radiography, histological, and biomechanical test (F. Bonnarens, et al., Journal of Orthopaedic Research, 2, 97-101 (1984).
Three month-old male rats were subjected to transverse fracture of their right femurs under general anesthesia. […] Three weeks after the injections, the rats were sacrificed and the right femurs were harvested and analyzed. […]

[4] = SPA, 1 μM substrate, read-out: PDE 2 Inhibition

Row | SMILES | bone mineral content (BMC) increase of injected region of femur by DEXA vs vehicle [1] [%] | pIC50 ([2]; PDE 2, read-out: IC50) | melting point [°C] | pIC50 [2, 4] | Force-to-failure increased compared to placebo [3] [%] | stiffness increased compared to placebo [3] [%]
1 | COc1ccc(Cc2nc3c(ncn3C(CCCc3ccccc3)C(C)=O)c(=O)[nH]2)cc1OC (stereo not shown) [9-(1-acetyl-4-phenyl-butyl)-2-(3,4-dimethoxy-benzyl)-1,9-dihydropurin-6-one, reference compound] | 20 | 8.52 | – | – | – | –
2 | COc1cc(CNc2nc(NCCc3ccncc3)nc3ncccc23)cc(OC)c1 [Example 3, N^4-(3,5-Dimethoxy-benzyl)-N^2-(2-pyridin-4-yl-ethyl)-pyrido[2,3-d]pyrimidine-2,4-diamine] | 34 | – | 234 to 235 | 6.00 to 6.60 | – | –
3 | COc1ccc(CNc2nc(NCCCc3ccc(C(O)C(F)(F)F)cc3)nc3ncccc23)cc1OC (stereo not shown) [Example 25, 1-(4-{3-[4-(3,4-Dimethoxy-benzylamino)-pyrido[2,3-d]pyrimidin-2-ylamino]-propyl}-phenyl)-2,2,2-trifluoro-ethanol] | – | – | 222 to 224 | 6.60 to 7.30 | – | –
4 | COc1ccc(CNc2nc(NCCCc3ccc4nonc4c3)nc3ncccc23)cc1OC [Example 26, N^2-3-(Benzo[1,2,5]oxadiazol-5-yl-propyl)-N^4-(3,4-dimethoxy-benzyl)-pyrido[2,3-d]pyrrimidine-2,4-diamine] | – | – | 191 to 193 | 6.00 to 6.60 | – | –
5 | COc1ccc(CNc2nc(NCCCc3ccc4ncsc4c3)nc3ncccc23)cc1OC [Example 27, N^2-3-(Benzothiazol-6-yl-propyl)-N^4-(3,4-dimethoxy-benzyl)-pyrido[2,3d]pyrimidine-2,4-diamine] | – | – | 191 to 193 | 6.00 to 6.60 | – | –
6 | COc1ccc(CNc2nc(NCCCc3cccc(C(C)(C)O)c3)nc3ncccc23)cc1OC [Example 29, 2-(3-{3-[4-(3,4-Dimethoxy-benzylamino)-pyrido[2,3-d]pyrimidin-2-ylamino]-propyl}-phenyl)-propan-2-ol] | 49 | – | 204 to 205 | 6.00 to 6.60 | – | –
7 | COc1ccc(CNc2nc(NCCCc3ccc(C#N)cc3)nc3ncccc23)cc1OC [Example 30, 4-{3-[4-(3,4-Dimethoxy-benzylamino)-pyrido[2,3-d]pyrimidin-2-ylamino]-propyl}-benzonitrile] | – | – | 220 to 222 | 6.00 to 6.60 | – | –
8 | COc1ccc(CNc2nc(NCCCc3ccccc3)nc3ncccc23)cc1OC [Example 32, N^4-(3,4-Dimethoxy-benzyl)-N^2-(3-phenyl-propyl)-pyrido[2,3-d]pyrimidine-2,4-diamine] | 33 | – | 190 to 192 | 6.00 to 6.60 | 19 | 62
9 | COc1cc(CNc2nc(NCCOc3ccccc3)nc3ncccc23)cc(OC)c1 [Example 33, N^4-(3,5-Dimethoxy-benzyl)-N^2-(3-phenoxy-ethyl)-pyrido[2,3-d]pyrimidine-2,4-diamine] | – | – | 165 to 167 | 6.60 to 7.30 | – | –
10 | CCOc1cc(CNc2nc(NCCCc3ccccc3)nc3ncccc23)ccc1OC [Example 34, N^4-(3-Ethoxy-4-methoxy-benzyl)-N^2-(3-phenyl-propyl)-pyrido[2,3-d]pyrimidine-2,4-diamine] | – | – | 181 to 182 | 6.00 to 6.60 | – | –
11 | CCOc1cc(CNc2nc(NCCCc3ccc(C(C)(C)O)cc3)nc3ncccc23)ccc1OC [Example 35, 2-(4-{3-[4-(3-Ethoxy-4-methoxy-benzylamino)-pyrido[2,3-d]pyrimidin-2-ylamino]-propyl}-phenyl)-propan-2-ol] | – | – | 150 to 152 | 6.00 to 6.60 | – | –
12 | COc1ccc(CNc2nc(NCCCc3ccc(C(=O)C(F)(F)F)cc3)nc3ncccc23)cc1OC [Example 36, 1-(4-{3-[4-(3,4-Dimethoxy-benzylamino)-pyrido[2,3-d]pyrimidin-2-ylamino]-propyl}-phenyl)-2,2,2-trifluoro-ethanone] | – | – | 198 to 200 | 6.00 to 6.60 | – | –
13 | COc1ccc(CNc2nc(NCCCc3cccc(C(C)=O)c3)nc3ncccc23)cc1OC [Example 37, 1-(3-{3-[4-(3,4-Dimethoxy-benzylamino)-pyrido[2,3-d]pyrimidin-2-ylamino]-propyl}-phenyl)-ethanone] | – | – | 152 to 155 | 6.00 to 6.60 | – | –
